Reference: patent US9499534B2, “Thiazole-substituted aminopyrimidines as spleen tyrosine kinase inhibitors” (priority 2013, dated 2016)

target: recombinant human GST-SYK (Homo sapiens (Human), UniProt P43405); assay: Homogeneous Time-Resolved Fluorescence (HTRF) Assay for the Recombinant Human Syk Enzyme; assay type: biochemical; settings: GST-SYK 5 pM, ATP 25 μM, biotinylated substrate peptide 250 nM, HTRF signal
Method: Homogeneous Time-Resolved Fluorescence (HTRF) Assay for the Recombinant Human Syk Enzyme
A recombinant GST-hSYK fusion protein was used to measure potency of compounds to inhibit human Syk activity. The recombinant human GST-SYK (Carna Biosciences #08-176) (5 pM final concentration) was incubated with various concentrations of the inhibitor diluted in DMSO (0.1% final concentration) for 10 minutes at room temperature in 15 mM Tris-HCl (pH 7.5), 0.01% tween 20, 2 mM DTT in 384 well plate format. To initiate the reaction the biotinylated substrate peptide (250 nM final concentration) that contains the phosphorylation site for Syk was added with magnesium (5 mM final concentration) and ATP (25 μM final concentration). Final volume of the reaction was 10 μL. Phosphorylation of the peptide was allowed to proceed for 45′ at room temperature. To quench the reaction and detect the phosphorylated product, 2 nM of a Europium-anti-phosphotyrosine antibody (Perkin Elmer #AD0161) and 70 nM SA-APC (Perkin-Elmer #CR130-100) were added together in 15 mM Tris pH 7.5, 40 mM EDTA, 0.01% tween 20. Final volume of the quenching solution was 10 μL.
The resulting HTRF signal was measured after 30 minutes on an EnVision (Perkin-Elmer) reader using a time-resolved fluorescence protocol. Table A below lists activities as IC50 values (nM) for representative compounds of the invention.

Row | SMILES | IC50
1 | Cc1cc(-c2cc(Nc3nccc(C(F)(F)F)n3)cc(-c3cnc([C@]4(O)CC[C@@H](C(=O)O)C(C)(C)C4)s3)c2)ccc1F (single isomer, unassigned) [Example 2.16, (1R,4S or 1S,4R)-4-[5-(4′-fluoro-3′-methyl-5-{[4-(trifluoromethyl)pyrimidin-2-yl]amino}biphenyl-3-yl)-1,3-thiazol-2-yl]-4-hydroxy-2,2-dimethylcyclohexanecarboxylic acid] | 153 nM
2 | C[S+]([O-])c1ccccc1-c1cc(Nc2nccc(C(F)(F)F)n2)cc(-c2cnc([C@]3(O)CC[C@@H](C(=O)O)C(C)(C)C3)s2)c1 (single isomer, unassigned) [Example 2.17, (1R,4S or 1S,4R)-4-hydroxy-2,2-dimethyl-4-{5-[2′-(methylsulfinyl)-5-{[4-(trifluoromethyl)pyrimidin-2-yl]amino}biphenyl-3-yl]-1,3-thiazol-2-yl}cyclohexanecarboxylic acid] | 15.3 nM
3 | CC1(C)C[C@](O)(c2ncc(-c3cc(Nc4nccc(C(F)(F)F)n4)cc(-c4ccccc4Cl)c3)s2)CC[C@H]1C(=O)O (single isomer, unassigned) [Example 2.18, (1R,4S or 1S,4R)-4-[5-(2′-chloro-5-{[4-(trifluoromethyl)pyrimidin-2-yl]amino}biphenyl-3-yl)-1,3-thiazol-2-yl]-4-hydroxy-2,2-dimethylcyclohexanecarboxylic acid] | 37.1 nM
4 | CC1(C)C[C@](O)(c2ncc(-c3cc(Nc4nccc(C(F)(F)F)n4)cc(-c4ccc(N)nc4)c3)s2)CC[C@H]1C(=O)O (single isomer, unassigned) [Example 2.19, (1R,4S or 1S,4R)-4-{5-[3-(6-aminopyridin-3-yl)-5-{[4-(trifluoromethyl)pyrimidin-2-yl]amino}phenyl]-1,3-thiazol-2-yl}-4-hydroxy-2,2-dimethylcyclohexanecarboxylic acid] | 1.29 nM
5 | Cc1ccccc1-c1cc(Nc2nccc(C(F)(F)F)n2)cc(-c2cnc([C@]3(O)CC[C@@H](C(=O)O)C(C)(C)C3)s2)c1 (single isomer, unassigned) [Example 2.20, (1R,4S or 1S,4R)-4-hydroxy-2,2-dimethyl-4-[5-(2′-methyl-5-{[4-(trifluoromethyl)pyrimidin-2-yl]amino}biphenyl-3-yl)-1,3-thiazol-2-yl]cyclohexanecarboxylic acid] | 70.4 nM
6 | CC1(C)C[C@](O)(c2ncc(-c3cc(Nc4nccc(C(F)(F)F)n4)cc(C4=CCCCC4)c3)s2)CC[C@H]1C(=O)O (single isomer, unassigned) [Example 2.21, (1R,4S or 1S,4R)-4-[5-(3-cyclohex-1-en-1-yl-5-{[4-(trifluoromethyl)pyrimidin-2-yl]amino}phenyl)-1,3-thiazol-2-yl]-4-hydroxy-2,2-dimethylcyclohexanecarboxylic acid] | 17.6 nM
7 | Cc1ccc(F)c(-c2cc(Nc3nccc(C(F)(F)F)n3)cc(-c3cnc([C@]4(O)CC[C@@H](C(=O)O)C(C)(C)C4)s3)c2)c1 (single isomer, unassigned) [Example 2.22, (1R,4S or 1S,4R)-4-[5-(2′-fluoro-5′-methyl-5{[4-(trifluoromethyl)pyrimidin-2 yl]amino}biphenyl-3-yl)-1,3-thiazol-2-yl]-4-hydroxy-2,2-dimethylcyclohexanecarboxylic acid] | 46 nM
8 | Cc1ccsc1-c1cc(Nc2nccc(C(F)(F)F)n2)cc(-c2cnc([C@]3(O)CC[C@@H](C(=O)O)C(C)(C)C3)s2)c1 (single isomer, unassigned) [Example 2.23, (1R,4S or 1S,4R)-4-hydroxy-2,2-dimethyl-4-{5-[3-(3-methylthiophen-2-yl)-5-{[4-(trifluoromethyl)pyrimidin-2-yl]amino}phenyl]-1,3-thiazol-2-yl}cyclohexanecarboxylic acid] | 10.1 nM
9 | Cc1cscc1-c1cc(Nc2nccc(C(F)(F)F)n2)cc(-c2cnc([C@]3(O)CC[C@@H](C(=O)O)C(C)(C)C3)s2)c1 (single isomer, unassigned) [Example 2.24, (1R,4S or 1S,4R)-4-hydroxy-2,2-dimethyl-4-{5-[3-(4-methylthiophen-3-yl)-5-{[4-(trifluoromethyl)pyrimidin-2-yl]amino}phenyl]-1,3-thiazol-2-yl}cyclohexanecarboxylic acid] | 24.6 nM
10 | CC1(C)C[C@](O)(c2ncc(-c3cc(Nc4nccc(C(F)(F)F)n4)cc(-c4ccccc4F)c3)s2)CC[C@H]1C(=O)O (single isomer, unassigned) [Example 2.25, (1R,4S or 1S,4R)-4-[5-(2′-fluoro-5-{[4-(trifluoromethyl)pyrimidin-2-yl]amino}biphenyl-3-yl)-1,3-thiazol-2-yl]-4-hydroxy-2,2-dimethylcyclohexanecarboxylic acid] | 35.2 nM
11 | CC/C=C\c1cc(Nc2nccc(C(F)(F)F)n2)cc(-c2cnc([C@]3(O)CC[C@@H](C(=O)O)C(C)(C)C3)s2)c1 (single isomer, unassigned) [Example 2.26, (1R,4S or 1S,4R)-4-[5-(3-[(1Z)-but-1-en-1-yl]-5-{[4-(trifluoromethyl)pyrimidin-2-yl]amino}phenyl)-1,3-thiazol-2-yl]-4-hydroxy-2,2-dimethylcyclohexanecarboxylic acid] | 2.68 nM
12 | CC1(C)C[C@](O)(c2ncc(-c3cc(/C=C\C4CC4)cc(Nc4nccc(C(F)(F)F)n4)c3)s2)CC[C@H]1C(=O)O (single isomer, unassigned) [Example 2.27, (1R,4S or 1S,4R)-4-[5-(3-[(Z)-2-cyclopropylethenyl]-5-{[4-(trifluoromethyl)pyrimidin-2-yl]amino}phenyl)-1,3-thiazol-2-yl]-4-hydroxy-2,2-dimethylcyclohexanecarboxylic acid] | 4.06 nM
13 | C/C=C(\C)c1cc(Nc2nccc(C(F)(F)F)n2)cc(-c2cnc([C@]3(O)CC[C@@H](C(=O)O)C(C)(C)C3)s2)c1 (single isomer, unassigned) [Example 2.28, (1R,4S or 1S,4R)-4-hydroxy-2,2-dimethyl-4-[5-(3-[(1E)-1-methylprop-1-en-1-yl]-5-{[4-(trifluoromethyl)pyrimidin-2-yl]amino}phenyl)-1,3-thiazol-2-yl]cyclohexanecarboxylic acid] | 2.75 nM
14 | CC(C)(C)/C=C\c1cc(Nc2nccc(C(F)(F)F)n2)cc(-c2cnc([C@]3(O)CC[C@@H](C(=O)O)C(C)(C)C3)s2)c1 (single isomer, unassigned) [Example 2.29, (1R,4S or 1S,4R)-4-[5-(3-[(1Z)-3,3-dimethylbut-1-en-1-yl]-5-{[4-(trifluoromethyl)pyrimidin-2-yl]amino}phenyl)-1,3-thiazol-2-yl]-4-hydroxy-2,2-dimethylcyclohexanecarboxylic acid] | 16.8 nM
15 | C=C(C)c1cc(Nc2nccc(C(F)(F)F)n2)cc(-c2cnc([C@]3(O)CC[C@@H](C(=O)O)C(C)(C)C3)s2)c1 (single isomer, unassigned) [Example 2.30, (1R,4S or 1S,4R)-4-hydroxy-2,2-dimethyl-4-{5-[3-(1-methylethenyl)-5-{[4-(trifluoromethyl)pyrimidin-2-yl]amino}phenyl]-1,3-thiazol-2-yl}cyclohexanecarboxylic acid] | 3.94 nM
16 | CC1(C)C[C@@](O)(c2ncc(-c3cc(Nc4nccc(C(F)(F)F)n4)cc(-c4nccs4)c3)s2)CC[C@@H]1C(=O)O (single isomer, unassigned) [Example 3.1, (1R,4S or 1S,4R)-4-Hydroxy-2,2-dimethyl-4-(5-(3-(thiazol-2-yl)-5-((4-(trifluoromethyl)pyrimidin-2-yl)amino)phenyl)thiazol-2-yl)cyclohexanecarboxylic acid] | 2.5 nM
17 | CC1(C)C[C@](O)(c2ncc(-c3cc(Nc4nccc(C(F)(F)F)n4)cc(-c4cccs4)c3)s2)CC[C@H]1C(=O)O (single isomer, unassigned) [Example 3.2, (1R,4S or 1S,4R)-4-hydroxy-2,2-dimethyl-4-[5-(3-thiophen-2-yl-5-{[4-(trifluoromethyl)pyrimidin-2-yl]amino}phenyl)-1,3-thiazol-2-yl]cyclohexanecarboxylic acid] | 12.4 nM
18 | CC1(C)C[C@](O)(c2ncc(-c3cc(Nc4nccc(C(F)(F)F)n4)cc(-c4ccc(C#N)c(F)c4)c3)s2)CC[C@H]1C(=O)O (single isomer, unassigned) [Example 3.3, (1R,4S or 1S,4R)-4-[5-(4′-cyano-3′-fluoro-5-{[4-(trifluoromethyl)pyrimidin-2-yl]amino}biphenyl-3-yl)-1,3-thiazol-2-yl]-4-hydroxy-2,2-dimethylcyclohexanecarboxylic acid] | 34.8 nM
19 | OC1(c2ncc(-c3cc(Nc4nccc(C(F)(F)F)n4)cc(-c4nnn[nH]4)c3)s2)CCC1 [Example 1.4, 1-(5-(3-(1H-Tetrazol-5-yl)-5-((4-(trifluoromethyl)pyrimidin-2-yl)amino)phenyl)thiazol-2-yl)cyclobutanol] | 77.7 nM
20 | COc1cc(Nc2nccc(C(F)(F)F)n2)cc(-c2cnc([C@]3(O)CC[C@@H](C(=O)O)CC3)s2)c1 [Example 1.6, cis-4-Hydroxy-4-(5-(3-methoxy-5-((4-(trifluoromethyl)pyrimidine-2-yl)amino)phenyl)thiazol-2-yl)cyclohexanecarboxylic acid] | 1.29 nM
